Where “and” joins values, the source holds several entries; their conditions need not be identical. Equal values may be shown once.
Tests used:
[1] = system: S. epidermidis strain ATCC 35984; test: Improved biofilm dispersion screen (already-formed biofilms, crystal violet); assay type: cell-based; details: Staphylococcus epidermidis, ATCC35984, no NaOH, positive = dispersion, negative = enhancement of pre-existing biofilm, quadruplicate, read-out: average percentage reduction of biofilm relative to the two control values (dispersion)
Procedure, shortened: (§1)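 Biofilms were grown 24 h in duplicate plates without compound; one plate was crystal violet-stained for t0. On the other, fresh medium plus compound at 390 μM final was added for 22–26 h more, with DMSO controls giving t24. Value: average % biofilm reduction versus t0 and t24, quadruplicates.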

[2] = system: P. aeruginosa strain PAO1; test: as above; assay type: cell-based; details: Pseudomonas aeruginosa, 30 mM NaOH step, positive = dispersion, negative = enhancement of pre-existing biofilm, quadruplicate, read-out: average percentage reduction of biofilm relative to the two control values (dispersion)
Procedure, shortened: as §1

[3] = system: P. fluorescens strain ATCC 13525; test: as above; assay type: cell-based; details: Pseudomonas fluorescens, ATCC13525, 20 mM NaOH step, positive = dispersion, negative = enhancement of pre-existing biofilm, quadruplicate, read-out: average percentage reduction of biofilm relative to the two control values (dispersion)
Procedure, shortened: as §1

[4] = system: S. epidermidis; test: 3-piece growth-chamber array (3P-GCA) biofilm growth test on bathroom tile; assay type: cell-based, Staphylococcus epidermidis; details: 72 hours; for optical density of extracted crystal violet (biofilm growth): S. epidermidis on standard white matte bathroom tile, two medium exchanges, replicate wells A, B, C, smaller = prevention, inoculated control 1.870-2.387; for biofilm prevention activity in 3P-GCA method (in words): S. epidermidis on white matte bathroom tile
Procedure: Wells in the block bottom are filled with 0.5–1 mL of the media described in Reference Example 1, and inoculated with 5–10 μL of overnight cultures of the bacterial strains described in Reference Example 1. The block bottom and top that contain a standard-size, white bathroom tile are then aligned and clamped together, and the assembly placed on a tissue culture rotator (VWR Scientific) set at a rotation speed of 1–3 rpm, or in a shaking incubator, at the appropriate temperature, for 24 hours. Optionally, the 1 mL liquid medium in each well is then replaced with fresh medium, and incubation continued for an additional 24 hours; this sequence of medium replacement and continued growth is done from 1–3 times, to generate biofilms of the desired thickness. After growth, the block bottom is removed, the liquid is removed and replaced with 200 μL of a 1% CV solution (in ˜10% ethanol). The block is then reassembled, re-positioned on the tissue culture rotator and incubated with the settings described above for 15–75 minutes to stain the biofilms. The block pieces are disassembled, and the top block that contains the tile surface is rinsed under a gentle stream of deionized water until all unbound dye is visibly removed. Optionally, any excessive dye adsorbed to the sides of the wells of the block bottom is removed using a test tube brush and a commonly available detergent formulation; this helps to reduce any background due to non-specific staining that can sometimes occur. As a faster alternative, the stained block bottom is simply interchanged with a new or pre-cleaned block bottom. Bound dye on the tile surface is then extracted by pipetting 0.5–1.0 mL of a solution of 1% sodium deoxycholate in 95% ethanol (and optionally 4–6 glass beads 1–3 mm in diameter to assist dye removal) into each well, reassembling the block top and bottom, and either repositioning on the tissue culture rotator followed by incubation using the settings described above for 0.5–2 hours, or alternatively, vortexing vigorously for 1–5 minutes. Subsequently, either undiluted or diluted (in ethanol) samples of extracted CV pipetted from the disassembled blocks are transferred to flat bottom, polystyrene microtiter plates and absorbances are measured in a microplate reader, and compared to controls, as described in Reference Example 1. […] Use of the 3P-GCA is the same as for the 2P-GCA described in Reference Example 5, except that when liquid growth media are being replaced in the wells of the block bottom, only one of the lid assemblies is removed. This arrangement has the advantage that if sensitive biofilms are being investigated, they are not disturbed at all during the entire method. If the biofilms being investigated are not sensitive to disturbance, then an additional advantage of the 3P-GCA is that it can be used to grow biofilms on both surfaces 30 of each lid assembly 90, especially if the 3P-GCA is mounted on a tissue culture rotator for biofilm growth, such that liquid growth media contacts both surfaces 30. […] Polypropylene block components are used. Data are reported as optical density measurements for 3 replicates of inoculated wells per compound tested, with 3 inoculated and three uninoculated control well replicates, corresponding to columns 1 (compound 32), 2 (compound 168), 3 (compound 226), 4 (inoculated control), and 5 (uninoculated control). Smaller numbers indicate prevention of biofilm growth.

CCCCCCCCCCCCNC(=O)[C@@H]1CCCN1 [Compound 168]
inhibition at 390 µM [1]: 78%
inhibition at 390 µM [2]: 17%
inhibition at 390 µM [3]: -3%
optical density of extracted crystal violet (biofilm growth) [4]: 1.981 and 1.581 and 1.517
biofilm prevention activity in 3P-GCA method (in words) [4]: much more modest effect

CCCCCCCCCCNC(=O)[C@@H]1CCCN1 [Compound 32, L-proline n-decyl amide]
inhibition at 390 µM [1]: 72%
inhibition at 390 µM [2]: -107%
inhibition at 390 µM [3]: 0%
optical density of extracted crystal violet (biofilm growth) [4]: 0.175 and 0.244 and 0.207
biofilm prevention activity in 3P-GCA method (in words) [4]: strong biofilm prevention activity

O=C(NCCCCCCCCCCCCNC(=O)[C@H]1CCCN1)[C@H]1CCCN1 [Compound 226, D-proline 1,12-diaminododecane bisamide]
inhibition at 390 µM [1]: 26%
inhibition at 390 µM [2]: 7%
inhibition at 390 µM [3]: 32%
optical density of extracted crystal violet (biofilm growth) [4]: 0.202 and 0.269 and 0.147
biofilm prevention activity in 3P-GCA method (in words) [4]: strong biofilm prevention activity

Source: patent publication US7018642B2 (The Procter & Gamble Company, priority 2001, dated 2006)
